Source: publication PMC9862305 (Plants, 2023)
Converted amounts (≈) assume the structure as drawn. Where two headings read alike, the source gives them in different places.

Columns and labels:
AChE = details: cited from earlier work; for IC50 (AChE inhibitory activity): individual compound
[1] = molecular target: T1, Acetylcholinesterase (AChE) from Electrophorus electricus (Electrophorus electricus, UniProt O42275); assay: biochemical
T1 construct: purchased Sigma-Aldrich type VI-S (catalogue number not given)
T1 sequence (O42275 24-633): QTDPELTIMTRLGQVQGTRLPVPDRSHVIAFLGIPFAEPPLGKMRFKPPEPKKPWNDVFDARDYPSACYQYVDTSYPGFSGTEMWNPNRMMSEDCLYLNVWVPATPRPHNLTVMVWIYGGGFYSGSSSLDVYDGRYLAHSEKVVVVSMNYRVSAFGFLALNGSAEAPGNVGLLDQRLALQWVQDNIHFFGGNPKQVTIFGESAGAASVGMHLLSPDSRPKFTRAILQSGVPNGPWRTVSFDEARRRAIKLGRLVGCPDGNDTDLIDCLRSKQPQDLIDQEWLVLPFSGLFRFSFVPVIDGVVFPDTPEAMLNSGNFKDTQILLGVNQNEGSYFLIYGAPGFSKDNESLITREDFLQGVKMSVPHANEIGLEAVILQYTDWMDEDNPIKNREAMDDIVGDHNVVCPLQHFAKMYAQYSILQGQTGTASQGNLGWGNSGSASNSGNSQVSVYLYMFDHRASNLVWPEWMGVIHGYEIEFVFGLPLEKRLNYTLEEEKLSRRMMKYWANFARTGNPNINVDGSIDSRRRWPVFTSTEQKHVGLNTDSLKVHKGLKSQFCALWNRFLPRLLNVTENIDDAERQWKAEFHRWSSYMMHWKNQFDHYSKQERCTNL
Experimental: (§1) The cholinesterase inhibitory potentials of the isolated compounds were evaluated via a spectrophotometric approach, which was adapted by Ellman’s method. […] Enzyme inhibition is a beneficial approach in order to evaluate the pharmacological potential of herbal remedies and pure substances. The inhibition of the AChE and BChE enzymes has been linked to the alleviation of symptoms associated with memory impairment in AD [10]. […] Methoxylation may decrease or increase activity depending on the type of flavonoids (flavones, flavanones, or isoflavones). […] Moreover, the hydrogenation of the double bond next to the carbonyl carbon in the structure of flavanones also decreases their affinity for cholinesterase inhibitory activity. However, there are some exceptions to the aforementioned observation of structure–activity relationship in the literature.
(§2) Acetylcholinesterase (AchE) from Electrophorus electricus (electrical eels, type VI-S, 200–1000 unit/mg), Butyrylcholinesterase from equine serum (lyophilized powder ≥ 500 units/mg protein), substrate acetylthiocholine iodide (ATCI), S-butyrylthiocholine iodide (BTCI), sodium phosphate monobasic, and sodium phosphate dibasic were purchased from Sigma-Aldrich (St. Louis, MO, USA). The coloring agent 5,5-dithio-bis-[2-nitrobenzoic acid] (DTNB), and β-sitosterol were obtained from Acros Organics (Acros Organics, NJ, USA). […] Silica gel (Kieselgel 60, 230–400 mesh atm) was purchased from Merck (Darmstadt, Germany). The solvents were of analytical grade and used as received.
(§3) Each run was carried out in triplicate on three consecutive days. Anti-BChE assays were performed using the same procedures described above but using BChE from equine serum (lyophilized powder ≥ 500 units/mg protein) instead of AChE and BTCI instead of ACTI. The final absorbance of each tested sample was calculated by subtracting the absorbance of their respective blank without enzyme addition. […] Then, the IC50 values of all tested samples and standards were calculated from the curve of the % inhibition versus concentration. (1) % Inhibition=Abs −ve control−Abs test sample/Abs −ve control×100

[2] = molecular target: T2, Butyrylcholinesterase from equine serum (Equus caballus, UniProt P81908); assay: biochemical
T2 construct: using BChE from equine serum (lyophilized powder ≥ 500 units/mg protein); purchased Sigma-Aldrich; host or cells: equine serum
T2 sequence (P81908 whole entry): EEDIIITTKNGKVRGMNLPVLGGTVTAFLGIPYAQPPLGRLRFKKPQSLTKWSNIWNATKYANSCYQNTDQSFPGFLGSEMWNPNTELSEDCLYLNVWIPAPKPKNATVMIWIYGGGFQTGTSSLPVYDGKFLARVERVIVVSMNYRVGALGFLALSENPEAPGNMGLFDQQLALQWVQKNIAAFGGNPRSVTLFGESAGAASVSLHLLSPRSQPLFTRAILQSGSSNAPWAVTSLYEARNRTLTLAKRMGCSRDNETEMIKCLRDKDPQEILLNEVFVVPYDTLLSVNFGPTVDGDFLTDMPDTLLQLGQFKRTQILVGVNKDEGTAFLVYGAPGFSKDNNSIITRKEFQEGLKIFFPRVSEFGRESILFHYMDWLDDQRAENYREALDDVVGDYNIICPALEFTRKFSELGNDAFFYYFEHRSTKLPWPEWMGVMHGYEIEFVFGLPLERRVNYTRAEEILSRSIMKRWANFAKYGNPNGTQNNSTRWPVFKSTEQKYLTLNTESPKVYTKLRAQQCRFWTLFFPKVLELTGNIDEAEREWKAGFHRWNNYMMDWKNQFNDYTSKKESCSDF
Experimental: as §1, §2, §3

BChE = details: cited from earlier work
[3] = AChE (IC50) µM, isolated compounds, Table 4
[4] = AChE (IC50) µg/mL, isolated compounds, Table 4
[5] = BChE (IC50) µM, isolated compounds, Table 4
[6] = BChE (IC50) µg/mL, isolated compounds, Table 4
[7] = luteolin isolated from Globularia meridionalis
[8] = isolated compounds, Table 4, read-out: AChE (IC50)
[9] = read-out: AChE (IC50) µg/mL (converted)

For COc1ccc(-c2cc(=O)c3c(O)cc(O)cc3o2)cc1 [acacetin], the IC50 (AChE; read-out: IC50) is given as 65.3 µM.

Molecule O=C(O)C=Cc1ccc(O)cc1 [Compound 6, 4-Hydroxycinnamic acid] has an IC50 [1, 3] of 43.4 ± 0.61 µM, an IC50 [1, 4] of 43.4 µM and an IC50 [2, 5] of 409 ± 14.8 µM. It also gave an IC50 [2, 6] of 409 µM.

For O=c1cc(-c2ccccc2)oc2cc(O)c(O)c(O)c12 [baicalein], the IC50 (AChE; read-out: IC50 (AChE)) is listed as 46 ± 3.44 µM.

For CC[C@H](/C=C/[C@@H](C)[C@H]1CC[C@H]2[C@@H]3CC=C4C[C@@H](O)CC[C@]4(C)[C@H]3CC[C@]12C)C(C)C [Compound 4, Stigmasterol], the IC50 (AChE inhibitory activity) (AChE) is listed as 63 µg/mL (≈ 153 µM).

For COc1ccc(-c2cc(=O)c3c(O)cc(O[C@@H]4O[C@H](CO)[C@H](O)[C@H](O)[C@H]4O)cc3o2)cc1 [acacetin-7-O-beta-D-galactopyranoside], the IC50 (AChE; read-out: IC50) is given as 6.7 µM.

In the case of O=c1cc(-c2ccc(O)cc2)oc2cc(O)cc(O)c12 [apigenin], the IC50 (AChE; read-out: IC50 (AChE)) is given as 34.4 ± 2.41 µM.

In the case of O=c1cc(-c2ccc(O)c(O)c2)oc2cc(O)cc(O)c12 [Compound 2, Luteolin], the “IC50 for BuChE” value (BChE; [7]) is listed as 37.2 ± 0.5 µg/mL, the “IC50 for AChE” value (AChE; [7]) is listed as 25.2 ± 0.4 µg/mL and the IC50 (AChE; luteolin isolated from Rhizoma drynariae, read-out: AChE inhibition potential) is listed as 17.3 ± 0.23 µM. For the same molecule, the IC50 [1, 3] was 20.5 ± 1.1 µM, the IC50 [1, 4] was 20.5 µM and the IC50 [2, 5] was 46.2 ± 2.2 µM. The IC50 [2, 6] was 46.2 µM.

In the case of Omifoate A [reference compound], the “IC50 for BChE” value (BChE) is given as 9.07 µg/mL and the “IC50 for AChE” value (AChE) is given as 6.51 µg/mL.

In the case of O=C(O)/C=C/c1ccccc1 [Compound 5, Cinnamic acid], the IC50 [2, 5] is reported as 373 ± 16.4 µM and the IC50 [2, 6] is reported as 373 µM.

In the case of CC[C@H](CC[C@@H](C)[C@H]1CC[C@H]2[C@@H]3CC=C4C[C@@H](O)CC[C@]4(C)[C@H]3CC[C@]12C)C(C)C [Compound 3, β-sitosterol], the “IC50 (AChE inhibitory activity)” value (AChE) is given as 55 µg/mL (≈ 133 µM), the IC50 [1, 3] is given as 137 ± 8.66 µM and the IC50 [1, 4] is given as 137 µM. The IC50 [2, 5] was 157 ± 7.26 µM and the IC50 [2, 6] was 157 µM.

In the case of O=Cc1ccc(CO)o1 [Compound 7], the IC50 [1, 8] is reported as 158 ± 3.49 µM, the IC50 [1, 9] is reported as 158 µM and the IC50 ([2]; read-out: BChE (IC50) µg/mL) is reported as > 793 µM.

With CCCCCCCCCCCCCCCCCCCCOC(=O)CCCCCCCCCCCCCCCCCCC [Compound 1, Arachidyl arachidate] the IC50 [1, 8] was 248.6 ± 2.24 µM, the IC50 [1, 9] was 249 µM and the IC50 ([2]; read-out: BChE (IC50) µg/mL) was > 253 µM.
